Source: BindingDB's records for doi:10.1021/jm00072a019 (J. Uriach & Cía., 1993)
pIC50: −log10 of the molar value.

Legend:
[1] = In vitro inhibition of PAF-induced platelet aggregation in male rabbits
[2] = Inhibition of PAF-induced platelet aggregation

Row | Structure (SMILES) | pIC50 [1] | pIC50 [2]
1 | Cc1ncccc1C(CO)N1CCN(C(=O)CC(c2ccccc2)c2ccccc2)CC1 (centres undefined) [1-{4-[2-Hydroxy-1-(2-methyl-pyridin-3-yl)-ethyl]-piperazin-1-yl}-3,3-diphenyl-propan-1-one] | 5.40 | 
2 | CO/N=C(/C)C(c1cccnc1C)N1CCN(C(=O)CC(c2ccccc2)c2ccccc2)CC1 (centres undefined) [1-{4-[2-Methoxyimino-1-(2-methyl-pyridin-3-yl)-propyl]-piperazin-1-yl}-3,3-diphenyl-propan-1-one] | 5.11 | 
3 | Cc1ncccc1C(C#N)N1CCN(C(=O)CC(NC(=O)c2ncccc2O)c2ccccc2)CC1 (centres undefined) [3-Hydroxy-pyridine-2-carboxylic acid (3-{4-[cyano-(2-methyl-pyridin-3-yl)-methyl]-piperazin-1-yl}-3-oxo-1-phenyl-propyl)-amide] | 6.89 | 
4 | CCOC(=O)C(CC(=O)N1CCN(C(C#N)c2cccnc2C)CC1)(c1ccccc1)c1ccccc1 (centres undefined) [4-{4-[Cyano-(2-methyl-pyridin-3-yl)-methyl]-piperazin-1-yl}-4-oxo-2,2-diphenyl-butyric acid ethyl ester] | 7.34 | 
5 | Cc1ncccc1C(C#N)N1CCN(C(=O)CC(c2ccccc2)n2cccc2)CC1 (centres undefined) [(2-Methyl-pyridin-3-yl)-[4-(3-phenyl-3-pyrrol-1-yl-propionyl)-piperazin-1-yl]-acetonitrile] | 6.46 | 
6 | Cc1ncccc1C(C#N)N1CCN(C(=O)CC(c2ccccc2)N2CCCC2)CC1 (centres undefined) [(2-Methyl-pyridin-3-yl)-[4-(3-phenyl-3-pyrrolidin-1-yl-propionyl)-piperazin-1-yl]-acetonitrile] | 7.74 | 
7 | Cc1ncccc1C(C#N)N1CCN(C(=O)CC(C)c2ccccc2)CC1 (centres undefined) [(2-Methyl-pyridin-3-yl)-[4-(3-phenyl-butyryl)-piperazin-1-yl]-acetonitrile] | 7.49 | 
8 | Cc1ncccc1C(C#N)N1CCN(C(=O)CC(O)(c2ccccc2)C(F)(F)F)CC1 (centres undefined) [(2-Methyl-pyridin-3-yl)-[4-(4,4,4-trifluoro-3-hydroxy-3-phenyl-butyryl)-piperazin-1-yl]-acetonitrile] | 7.85 | 
9 | Cc1ncccc1C(C#N)N1CCN(C(=O)/C=C(/c2ccccc2)C(F)(F)F)CC1 (centres undefined) [(2-Methyl-pyridin-3-yl)-[4-(4,4,4-trifluoro-3-phenyl-but-2-enoyl)-piperazin-1-yl]-acetonitrile] | 6.92 | 
10 | Cc1ncccc1C(C#N)N1CCN(C(=O)/C=C(\c2ccccc2)C(F)(F)F)CC1 (centres undefined) [(2-Methyl-pyridin-3-yl)-[4-(4,4,4-trifluoro-3-phenyl-but-2-enoyl)-piperazin-1-yl]-acetonitrile] | 7.26 | 
11 | Cc1ncccc1C(C#N)N1CCN(C(=O)CC(c2ccccc2)C(F)(F)F)CC1 (centres undefined) [(2-Methyl-pyridin-3-yl)-[4-(4,4,4-trifluoro-3-phenyl-butyryl)-piperazin-1-yl]-acetonitrile] | 7.92 | 
12 | Cc1ncccc1C(C#N)N1CCN(C(=O)CC(NC(=O)c2ccoc2)c2ccccc2)CC1 (centres undefined) [Furan-3-carboxylic acid (3-{4-[cyano-(2-methyl-pyridin-3-yl)-methyl]-piperazin-1-yl}-3-oxo-1-phenyl-propyl)-amide] | 5.59 | 
13 | C=CCNC(CC(=O)N1CCN(C(C#N)c2cccnc2C)CC1)c1ccccc1 (centres undefined) [[4-(3-Allylamino-3-phenyl-propionyl)-piperazin-1-yl]-(2-methyl-pyridin-3-yl)-acetonitrile] |  | 7.74
14 | Cc1ncccc1C(C#N)N1CCN(C(=O)CC(N)c2ccccc2)CC1 (centres undefined) [[4-(3-Amino-3-phenyl-propionyl)-piperazin-1-yl]-(2-methyl-pyridin-3-yl)-acetonitrile] |  | 6.13

Second part, the compound after the results:

Row | pIC50 [1] | pIC50 [2] | Structure (SMILES)
15 |  | 8.04 | Cc1ncccc1C(C#N)N1CCN(C(=O)CC(NCc2ccccc2)c2ccccc2)CC1 (centres undefined) [[4-(3-Benzylamino-3-phenyl-propionyl)-piperazin-1-yl]-(2-methyl-pyridin-3-yl)-acetonitrile]
16 |  | 7.39 | Cc1ncccc1C(C#N)N1CCN(C(=O)CC(c2ccccc2)N(Cc2ccccc2)Cc2ccccc2)CC1 (centres undefined) [[4-(3-Dibenzylamino-3-phenyl-propionyl)-piperazin-1-yl]-(2-methyl-pyridin-3-yl)-acetonitrile]
17 |  | 7.59 | Cc1ncccc1C(C#N)N1CCN(C(=O)C(C)(C)C(F)(c2ccccc2)c2ccccc2)CC1 (centres undefined) [[4-(3-Fluoro-2,2-dimethyl-3,3-diphenyl-propionyl)-piperazin-1-yl]-(2-methyl-pyridin-3-yl)-acetonitrile]
18 |  | 7.77 | Cc1ncccc1C(C#N)N1CCN(C(=O)CC(O)(c2ccccc2)c2ccccc2)CC1 (centres undefined) [[4-(3-Hydroxy-3,3-diphenyl-propionyl)-piperazin-1-yl]-(2-methyl-pyridin-3-yl)-acetonitrile]
19 |  | 7.96 | CNC(CC(=O)N1CCN(C(C#N)c2cccnc2C)CC1)c1ccccc1 (centres undefined) [[4-(3-Methylamino-3-phenyl-propionyl)-piperazin-1-yl]-(2-methyl-pyridin-3-yl)-acetonitrile]
20 |  | 7.10 | Cc1ncccc1C(C#N)N1CCN(C(=O)CCC(c2ccccc2)c2ccccc2)CC1 (centres undefined) [[4-(4,4-Diphenyl-butyryl)-piperazin-1-yl]-(2-methyl-pyridin-3-yl)-acetonitrile]
21 |  | 7.07 | Cc1ncccc1C(C#N)N1CCN(C(=O)CNC(C)(c2ccccc2)c2ccccc2)CC1 (centres undefined) [{4-[2-(1,1-Diphenyl-ethylamino)-acetyl]-piperazin-1-yl}-(2-methyl-pyridin-3-yl)-acetonitrile]
22 |  | 7.30 | Cc1ncccc1C(C#N)N1CCN(C(=O)CNC2c3ccccc3-c3ccccc32)CC1 (centres undefined) [{4-[2-(9H-Fluoren-9-ylamino)-acetyl]-piperazin-1-yl}-(2-methyl-pyridin-3-yl)-acetonitrile]
23 |  | 7.47 | Cc1ncccc1C(C#N)N1CCN(C(=O)[C@H](CO)NC(c2ccccc2)c2ccccc2)CC1 (some centres undefined) [{4-[2-(Benzhydryl-amino)-3-hydroxy-propionyl]-piperazin-1-yl}-(2-methyl-pyridin-3-yl)-acetonitrile]
24 |  | 7.42 | CCc1ncccc1C(C#N)N1CCN(C(=O)CNC(c2ccccc2)c2ccccc2)CC1 (centres undefined) [{4-[2-(Benzhydryl-amino)-acetyl]-piperazin-1-yl}-(2-ethyl-pyridin-3-yl)-acetonitrile]
25 |  | 7.40 | Cc1ncccc1C(C#N)N1CCN(C(=O)CNC(c2ccccc2)c2ccccc2)CC1 (centres undefined) [{4-[2-(Benzhydryl-amino)-acetyl]-piperazin-1-yl}-(2-methyl-pyridin-3-yl)-acetonitrile]
26 |  | 7.52 | Cc1ncccc1C(C#N)N1CCN(C(=O)[C@@H](C)NC(c2ccccc2)c2ccccc2)CC1 (some centres undefined) [{4-[2-(Benzhydryl-amino)-propionyl]-piperazin-1-yl}-(2-methyl-pyridin-3-yl)-acetonitrile]
27 |  | 7.89 | Cc1ncccc1C(C#N)N1CCN(C(=O)[C@H](C)NC(c2ccccc2)c2ccccc2)CC1 (some centres undefined) [{4-[2-(Benzhydryl-amino)-propionyl]-piperazin-1-yl}-(2-methyl-pyridin-3-yl)-acetonitrile]
28 |  | 6.92 | Cc1ncccc1C(C#N)N1CCN(C(=O)CCNC(c2ccccc2)c2ccccc2)CC1 (centres undefined) [{4-[3-(Benzhydryl-amino)-propionyl]-piperazin-1-yl}-(2-methyl-pyridin-3-yl)-acetonitrile]
29 |  | 7.70 | Cc1ncccc1C(C#N)N1CCN(C(=O)CC(c2ccccc2)N(C)Cc2ccccc2)CC1 (centres undefined) [{4-[3-(Benzyl-methyl-amino)-3-phenyl-propionyl]-piperazin-1-yl}-(2-methyl-pyridin-3-yl)-acetonitrile]
